Results as given in paper PMC3210919 (Biochemistry, 2011).
Where “and” joins values, the source holds several entries; their conditions need not be identical. Identical values can stand only once. Like-named read-outs stand apart in the source and are kept apart here. One block for each molecule: values may come before it.

How the values were obtained:
[1] = molecular target: T1, K1119Q RePC mutant (Rhizobium etli, UniProt Q2K340, K1119Q)
[2] = molecular target: T2, wild-type RePC (Rhizobium etli, UniProt Q2K340); assay type: biochemical; details: for % kcat of pyruvate carboxylation: phosphoryl donor varied, 0.25 mM acetyl-CoA
[3] = molecular target: T3, T882A RePC mutant (Rhizobium etli, UniProt Q2K340, T882A)
[4] = molecular target: T2, wild-type RePC; assay type: biochemical
[5] = tested on: wild-type RePC (pyruvate carboxylase from R. etli); assay: Pyruvate carboxylation activity, malate dehydrogenase coupled assay; assay type: biochemical, Rhizobium etli
[6] = molecular target: T3, T882A RePC mutant; remark: listed apart in the source
[7] = molecular target: T1, K1119Q RePC mutant; assay: HCO3^−-dependent ATPase reaction, K1119Q mutant; assay type: biochemical
[8] = molecular target: T2, wild-type RePC; assay: HCO3^−-dependent ATPase activity in the absence of pyruvate; assay type: biochemical
[9] = molecular target: T2, wild-type RePC; assay type: biochemical; remark: listed apart in the source
[10] = molecular target: T2, wild-type RePC; assay: Coupling study: initial rates of oxaloacetate formation at varying pyruvate; details: pyruvate varied; for kcat, oxaloacetate formation: 15 mM HCO3^−
[11] = molecular target: T2, wild-type RePC; assay: Coupling study: initial rates of Pi release at varying pyruvate; assay type: biochemical; details: for Ka pyruvate, stimulation of Pi release: 15 mM HCO3^−
[12] = tested on: NC(=O)OP(=O)(O)O; assay: purified protein, by the assay type; details: no free biotin, pH 7.5, 25.0 °C
[13] = substrate: CC(=O)C(=O)O; assay: purified protein, by the assay type; details: other: (−) acetyl-CoA, 15 mM HCO3^−
[14] = wild-type, (+) 10 mM free biotin
[15] = labelled substrate varied, others saturating, pH 7.5, 25° C, 0.25 mM acetyl-CoA
[16] = acetyl-CoA varied, 0.5 mM free Mg^2+, Hill fit eqn (4)
[17] = acetyl-CoA varied, 1.0 mM free Mg^2+, Hill fit eqn (4)
[18] = acetyl-CoA varied, 3.0 mM free Mg^2+, Hill fit eqn (4)
[19] = saturating acetyl-CoA and substrates

Molecule: CC(=O)OP(=O)(O)O [Acetyl phosphate]
% wild-type kcat/Km ([1]; (+) 10 mM free biotin): 57% | Km ([1]; (+) 10 mM free biotin): 370 ± 30 µM | kcat ([1]; (+) 10 mM free biotin): 0.00733 ± 0.00017 s⁻¹ | % wild-type kcat/Km ([1]; no free biotin): 95% | Km ([1]; no free biotin): 290 ± 10 µM | kcat ([1]; no free biotin): 0.00783 ± 0.00017 s⁻¹ | % kcat of pyruvate carboxylation ([2]; pH 7.5, 25° C): 0.1% | Km [2, 14]: 140 ± 40 µM | kcat [2, 14]: 0.00483 ± 3.3e-05 s⁻¹ | % wild-type kcat/Km ([3]; (+) 10 mM free biotin): 40% | Km ([3]; (+) 10 mM free biotin): 140 ± 10 µM | kcat ([3]; (+) 10 mM free biotin): 0.002 ± 0.00017 s⁻¹ | % wild-type kcat/Km ([3]; no free biotin): 80% | Km ([3]; no free biotin): 220 ± 10 µM | kcat ([3]; no free biotin): 0.005 ± 0.00017 s⁻¹

Molecule: NC(=O)OP(=O)(O)O [Carbamoyl phosphate]
% wild-type kcat/Km ([1]; (+) 10 mM free biotin): 45% | % wild-type kcat/Km ([1]; no free biotin): 17% | % kcat of pyruvate carboxylation ([2]; pH 7.5, 25° C): 0.6% | kcat ([2]; wild-type, no free biotin, pH 7.5, 25° C, […] MgADP, 0.25 mM acetyl-CoA (Table 7)): 0.04 ± 0.0017 s⁻¹ | % wild-type kcat/Km ([3]; (+) 10 mM free biotin): 920% | % wild-type kcat/Km ([3]; no free biotin): 750%

Molecule: Nc1ncnc2c1ncn2[C@@H]1O[C@H](COP(=O)(O)OP(=O)(O)O)[C@@H](O)[C@H]1O [MgADP]
% kcat of pyruvate carboxylation ([4]; MgADP varied, pH 7.5, 25° C, 0.25 mM acetyl-CoA): 0.2%

Molecule: Nc1ncnc2c1ncn2[C@@H]1O[C@H](COP(=O)(O)OP(=O)(O)OP(=O)(O)O)[C@@H](O)[C@H]1O [MgATP]
Km [5, 15]: 145 ± 9 µM | kcat [5, 15]: 396 ± 10 ^d min^−1 | % wild-type kcat/Km ([6]; (+) 10 mM free biotin): 260% | % wild-type kcat/Km ([6]; no free biotin): 225% | kcat ([6]; no free biotin): 0.233 ± 0.033 s⁻¹ | % wild-type kcat/Km ([7]; (+) 10 mM free biotin): 40% | % wild-type kcat/Km ([7]; no free biotin): 0.06% | kcat ([7]; no free biotin): 0.00137 ± 1.7e-05 s⁻¹ | % kcat of pyruvate carboxylation ([8]; MgATP varied, pH 7.5, 25° C, 0.25 mM acetyl-CoA): 0.6% | kcat ([8]; wild-type, no free biotin, pH 7.5, 25° C, 15 mM HCO3^−, 7.5 mM MgCl2, 0.25 mM acetyl-CoA): 0.043 ± 0.0015 s⁻¹

concentration of free Mg^2+ that inhibited pyruvate carboxylation [5]: > 7 mM | fold increase in kcat ([5]; Mg^2+ increased from 0.5 to 3 mM, acetyl-CoA varied): 4.9 fold | Ka for Mg^2+ for the effect on Vmax ([5]; estimated from replot of apparent 1/Vmax vs. 1/[Mg^2+], pyruvate varied): ≈ 40 mM | concentration of free Mg^2+ that inhibited MgATP-cleavage [8]: > 7 mM | inhibition of the MgADP phosphorylation reaction by Mg^2+ ([2]; up to 11 mM Mg^2+): no inhibition
Molecule: [Mg+2] [Mg^2+]

n acetyl-CoA (Hill coefficient) ([5]; acetyl-CoA varied, 0.5 mM free Mg^2+): 2.0 ± 0.3 | Ka acetyl-CoA [5, 16]: 38 ± 2 µM | Vmax [5, 16]: 1.16 ± 0.07 µmol/mg/min | n acetyl-CoA (Hill coefficient) ([5]; acetyl-CoA varied, 1.0 mM free Mg^2+): 2.8 ± 0.5 | Ka acetyl-CoA [5, 17]: 26 ± 2 µM | Vmax [5, 17]: 1.39 ± 0.06 µmol/mg/min | n acetyl-CoA (Hill coefficient) ([5]; acetyl-CoA varied, 3.0 mM free Mg^2+): 2.6 ± 0.2 | Ka acetyl-CoA [5, 18]: 10 µM and 10.0 ± 0.4 µM | Vmax [5, 18]: 5.7 ± 0.1 µmol/mg/min | Vmax ([5]; acetyl-CoA varied, […] free Mg^2+, Hill fit eqn (4)): 2.59 ± 0.08 µmol/mg/min | overall fold decrease in the Ka for acetyl-CoA ([5]; addition of 3.0 mM free Mg^2+): 3.8 fold | kcat (specific activity), (+) acetyl-CoA [5, 19]: 11.7 ± 0.333 s⁻¹ | % rate (−) acetyl-CoA compared to the specific activity in the presence of acetyl-CoA ([5]; saturating substrates): 9% | kcat (specific activity), (+) acetyl-CoA [9, 19]: 0.15 ± 0.00067 s⁻¹ | % rate (−) acetyl-CoA compared to the specific activity in the presence of acetyl-CoA ([9]; saturating substrates): 67% | decrease in rate caused by lack of acetyl-CoA ([4]; full reverse reaction): 78% | kcat (specific activity), (+) acetyl-CoA [4, 19]: 0.0139 ± 8.3e-05 s⁻¹ | % rate (−) acetyl-CoA compared to the specific activity in the presence of acetyl-CoA ([4]; saturating substrates): 18% | decrease in rate caused by lack of acetyl-CoA ([8]; MgATP hydrolysis): 82% | kcat (specific activity), (+) acetyl-CoA [8, 19]: 0.043 ± 0.0015 s⁻¹ | % rate (−) acetyl-CoA compared to the specific activity in the presence of acetyl-CoA ([8]; saturating substrates): 22% | effect of acetyl-CoA on the rate of MgADP phosphorylation by carbamoyl phosphate [2]: no effect | kcat (specific activity), (+) acetyl-CoA [2, 19]: 0.04 ± 0.0017 s⁻¹ | % rate (−) acetyl-CoA compared to the specific activity in the presence of acetyl-CoA ([2]; saturating substrates): 100%
Molecule: CC(=O)SCCNC(=O)CCNC(=O)[C@H](O)C(C)(C)COP(=O)(O)OP(=O)(O)OC[C@H]1O[C@@H](n2cnc3c(N)ncnc32)[C@H](O)[C@@H]1OP(=O)(O)O [acetyl-CoA, acetyl-coenzyme A, reference compound]

Molecule: O=C(O)CCCC[C@@H]1SC[C@@H]2NC(=O)N[C@@H]21 [biotin]
fold increase in the catalytic efficiency ([7]; 10 mM free biotin added): ~1000 fold | fold decrease in the Km for MgATP ([7]; addition of 10 mM biotin): 35 fold

% kcat of pyruvate carboxylation ([9]; saturating substrates and activators, 1 mM oxamate, pH 7.5, 25° C): 2.0%
Molecule: O=C(O)CC(=O)C(=O)O [oxaloacetate]

fold stimulation of the rate of oxaloacetate decarboxylation compared to the full reverse reaction ([9]; saturating oxamate): 11 fold
Molecule: NC(=O)C(=O)O [oxamate]

Km pyruvate (oxaloacetate formation) without acetyl-CoA, % of (+) acetyl-CoA [10]: 2% | kcat oxaloacetate formation without acetyl-CoA, % of (+) acetyl-CoA [10]: 0.5% | kcat/Km (oxaloacetate formation) without acetyl-CoA, % of (+) acetyl-CoA [10]: 24% | kcat, oxaloacetate formation ([10]; (+) 0.25 mM acetyl-CoA): 5.17 ± 0.13 s⁻¹ | kcat, oxaloacetate formation ([10]; (−) acetyl-CoA): 0.0253 ± 0.0005 s⁻¹ | Ka pyruvate, stimulation of Pi release ([11]; (+) 0.25 mM acetyl-CoA): 0.16 ± 0.01 mM | Ka pyruvate, stimulation of Pi release ([11]; (−) acetyl-CoA): 0.048 ± 0.008 mM | fold increase of the rates of Pi release from the BC domain ([11]; low concentrations of pyruvate, absence of acetyl-CoA): 120-175 fold | fold stimulation of the rate of Pi release from the BC domain ([11]; lowest concentrations of pyruvate, presence of acetyl-CoA): 300-500 fold | Ka pyruvate (Pi release) without acetyl-CoA, % of (+) acetyl-CoA ([11]; pyruvate varied): 30% | kcat Pi release without acetyl-CoA, % of (+) acetyl-CoA ([11]; pyruvate varied): 5.8% | kcat/Ka (Pi release) without acetyl-CoA, % of (+) acetyl-CoA ([11]; pyruvate varied): 19% | limiting value of the ratio oxaloacetate formation / Pi release ([11]; saturating pyruvate and acetyl-CoA): 1.08 | fold increase in the rate of Pi release ([11]; sub-saturating concentrations of pyruvate): ~300 fold | Km [5, 15]: 150 ± 10 µM | kcat [5, 15]: 440 ± 8 ^d min^−1 | Vmax ([5]; pyruvate varied, 0.7 mM free Mg^2+): 0.69 ± 0.02 µmol/mg/min | Vmax ([5]; pyruvate varied, 3.0 mM free Mg^2+): 3.18 ± 0.08 µmol/mg/min | Vmax ([5]; pyruvate varied, 5.0 mM free Mg^2+): 3.98 ± 0.04 µmol/mg/min | Vmax ([5]; pyruvate varied, […] free Mg^2+): 1.41 ± 0.01 µmol/mg/min | Km ([5]; read-out: Km pyruvate, pyruvate varied, 0.7 mM free Mg^2+): 3100 ± 200 µM | Km ([5]; read-out: Km pyruvate, pyruvate varied, 3.0 mM free Mg^2+): 2650 ± 40 µM | Km ([5]; read-out: Km pyruvate, pyruvate varied, 5.0 mM free Mg^2+): 150 ± 10 µM | Km ([5]; read-out: Km pyruvate, pyruvate varied, […] free Mg^2+): 3000 ± 400 µM
Molecule: CC(=O)C(=O)O [pyruvate]

Molecule: K1119Q RePC mutant (Rhizobium etli CFN 42; K1119Q)
Km ([12]; other: K1119Q): 880 ± 70 µM

Molecule: T882A RePC mutant (Rhizobium etli CFN 42; T882A)
Km ([12]; other: T882A): 3400 ± 500 µM | kcat ([12]; other: T882A): 0.4 s⁻¹ | kcat/Km ([12]; other: T882A): 117 M⁻¹ s⁻¹

B1: wild-type RePC (Rhizobium etli CFN 42) (protein)
chain: MPISKILVANRSEIAIRVFRAANELGIKTVAIWAEEDKLALHRFKADESYQVGRGPHLARDLGPIESYLSIDEVIRVAKLSGADAIHPGYGLLSESPEFVDACNKAGIIFIGPKADTMRQLGNKVAARNLAISVGVPVVPATEPLPDDMAEVAKMAAAIGYPVMLKASWGGGGRGMRVIRSEADLAKEVTEAKREAMAAFGKDEVYLEKLVERARHVESQILGDTHGNVVHLFERDCSVQRRNQKVVERAPAPYLSEAQRQELAAYSLKIAGATNYIGAGTVEYLMDADTGKFYFIEVNPRIQVEHTVTEVVTGIDIVKAQIHILDGAAIGTPQSGVPNQEDIRLNGHALQCRVTTEDPEHNFIPDYGRITAYRSASGFGIRLDGGTSYSGAIITRYYDPLLVKVTAWAPNPLEAISRMDRALREFRIRGVATNLTFLEAIIGHPKFRDNSYTTRFIDTTPELFQQVKRQDRATKLLTYLADVTVNGHPEAKDRPKPLENAARPVVPYANGNGVKDGTKQLLDTLGPKKFGEWMRNEKRVLLTDTTMRDGHQSLLATRMRTYDIARIAGTYSHALPNLLSLECWGGATFDVSMRFLTEDPWERLALIREGAPNLLLQMLLRGANGVGYTNYPDNVVKYFVRQAAKGGIDLFRVFDCLNWVENMRVSMDAIAEENKLCEAAICYTGDILNSARPKYDLKYYTNLAVELEKAGAHIIAVKDMAGLLKPAAAKVLFKALREATGLPIHFHTHDTSGIAAATVLAAVEAGVDAVDAAMDALSGNTSQPCLGSIVEALSGSERDPGLDPAWIRRISFYWEAVRNQYAAFESDLKGPASEVYLHEMPGGQFTNLKEQARSLGLETRWHQVAQAYADANQMFGDIVKVTPSSKVVGDMALMMVSQDLTVADVVSPDREVSFPESVVSMLKGDLGQPPSGWPEALQKKALKGEKPYTVRPGSLLKEADLDAERKVIEKKLEREVSDFEFASYLMYPKVFTDFALASDTYGPVSVLPTPAYFYGLADGEELFADIEKGKTLVIVNQAVSATDSQGMVTVFFELNGQPRRIKVPDRAHGATGAAVRRKAEPGNAAHVGAPMPGVISRVFVSSGQAVNAGDVLVSIEAMKMETAIHAEKDGTIAEVLVKAGDQIDAKDLLAVYGG
Km [13]: 13 ± 2 µM | kcat [13]: 0.0253 ± 0.0005 s⁻¹
